In patent US5912231A, “Substitution analogues of magainin peptides” (priority 1994, dated 1999):
Like-named read-outs stand apart in the source and are kept apart here. Residues, ends and D or L forms follow the SMILES beside them.

Legend:
Type in all cases: cell-based
Escherichia coli = conditions: 6 h
Description: (§1) Antimicrobial assays (for Examples 3 to 27) were carried out in 96-well tissue culture plates. Each well was incubated with a given microorganism (Escherichia coli, Staphylococcus epidermidis, Staphylococcus aureus, or Pseudomonas aeruginosa) suspended in LB medium (Examples 3-17), or TSB medium (Examples 18-27). Upon the addition of Magainin I or its substitution analogues, (dissolved in 1×PBS, pH 7.0) each well contained a final cell density of 1.0×10^6 colony forming units (CFU)/ml. The final peptide concentrations used were 100 μg/ml., 75.0 μg/ml, 50.0 μg/ml, 25 μg/ml, 12.5 μg/ml, 10 μg/ml, 5μg/ml, 2.5 μg/ml, and 1.25 μg/ml.
(§2) Addition of peptides to the wells was defined as time zero. At six hours, the plates were placed in a Titertek Multiskan apparatus and the O.D.620 determined. The plates as well as the initial innoculum were incubated at 37° C.
(§3) Five wells per plate contained media alone, while five others contained medium plus cells. These controls were used to eliminate the possibility of media contamination while providing a measure of uninhibited growth of the microorganisms.
(§4) The degree of peptide activity was determined by comparing the substitution analogues with uninhibited growth of the control cells over a six-hour period.

Pseudomonas aeruginosa = conditions: TSB medium, 6 h
Description: as §1, §2, §3, §4

[1] = system: Staphylococcus epidermidis; conditions: 6 h
Description: as §1, §2, §3, §4

Staphylococcus aureus = conditions: at 50 μg/ml peptide; LB medium; 6 h
Description: as §1, §2, §3, §4

[2] = at 10 μg/ml peptide, TSB medium
[3] = at 25 μg/ml peptide, TSB medium

CC[C@H](C)[C@H](NC(=O)CN)C(=O)NCC(=O)N[C@@H](CCCCN)C(=O)N[C@@H](CCCCN)C(=O)N[C@@H](CC(C)C)C(=O)N[C@@H](Cc1c[nH]cn1)C(=O)N[C@@H](CCCCN)C(=O)N[C@@H](CCCCN)C(=O)NCC(=O)N[C@@H](CCCCN)C(=O)N[C@@H](Cc1ccccc1)C(=O)NCC(=O)N[C@@H](CCCCN)C(=O)N[C@@H](Cc1ccccc1)C(=O)N[C@@H](CCCCN)C(=O)NCC(=O)N[C@@H](C)C(=O)N[C@H](C(=O)N[C@@H](CC(C)C)C(=O)N[C@@H](CCCCN)C(=O)N[C@@H](C)C(=O)O)[C@@H](C)CC [Example 8] (H-GIGKKLHKKGKFGKFKGAILKA-OH)
100%: % effective growth inhibition of E. coli (Escherichia coli; at 5 μg/ml peptide, LB medium) | % effective growth inhibition of E. coli (Escherichia coli; at 5 μg/ml peptide, TSB medium) | % effective growth inhibition of E. coli (Escherichia coli; [2]) | % effective growth inhibition of E. coli (Escherichia coli; at 25 μg/ml peptide, LB medium) | % effective growth inhibition of E. coli (Escherichia coli; [3]) | % effective growth inhibition of E. coli (Escherichia coli; at 75 μg/ml peptide, LB medium) | % effective growth inhibition of E. coli (Escherichia coli; at 100 μg/ml peptide, LB medium) | % effective growth inhibition of P. aeruginosa (Pseudomonas aeruginosa; at 5 μg/ml peptide) | % effective growth inhibition of P. aeruginosa (Pseudomonas aeruginosa; at 10 μg/ml peptide) | % effective growth inhibition of P. aeruginosa (Pseudomonas aeruginosa; at 25 μg/ml peptide) | % effective growth inhibition of S. epidermidis ([1]; at 5 μg/ml peptide, TSB medium) | % effective growth inhibition of S. epidermidis [1, 2] | % effective growth inhibition of S. epidermidis [1, 3] | % effective growth inhibition of S. epidermidis ([1]; at 50 μg/ml peptide, LB medium) | % effective growth inhibition of S. epidermidis ([1]; at 75 μg/ml peptide, LB medium)

GIGKFILHAAGKFGKAFVGIMKS (GIGKFLHAAGKFGKAFVGIMKS) [Magainin I, residue 19 deleted, residue 8 alanine]
100%: % effective growth inhibition of S. aureus (Staphylococcus aureus) | % effective growth inhibition of E. coli (Escherichia coli; at 2.5 μg/ml peptide, LB medium) | % effective growth inhibition of S. epidermidis ([1]; at 25 μg/ml peptide, LB medium)
